The target in series [1] is AChE of electroforus electricus (electric eel) (Electrophorus electricus, UniProt O42275). Briefly: biochemical. Particulars: AChE from electric eel; mean of three independent experiments ± SEM; read-out: eeAChEi IC50. As for the experimental part:
All new racemic compounds were tested as acetylcholinesterase inhibitors via an in vitro assay, following a modification of Ellman’s method in three independent experiments, using tacrine as a reference compound. […] Enzyme inhibition assays were performed using an adaptation of Ellman’s method. The readings were made in a spectrophotometer Perkin-Elmer Lambda 35 UV-Vis. Enzyme activity is measured by following the increase in yellow color produced from thiocholine when it reacts with dithiobisnitrobenzoate ion (DTNB). DTNB solution was obtained dissolving the reagent in HEPES buffer with salts, namely NaCl (50 mM) and MgCl2 (20 mM), obtaining a 3 mM solution. The enzyme AChE of electroforus electricus (electric eel) stock (500 U) was dissolved in TRIS 50 mM, pH 8.0, being posteriorly diluted to assay concentrations (5 U), obtaining an aliquot of 1 mL. The enzyme substrate used was acetylthiocholine iodide (AThCh, 16 mM), which was prepared with deionized water. The compounds tested were diluted in MeOH or DMSO (1 mg/mL, 2–7 × 10^−3 M), with further dilution, and five different concentrations were used for each compound, obtaining different percentages of AChE inhibition. The assay consists in the addition of HEPES (50 mM, pH = 8), inhibitor, AChE and MeOH in a 1 mL cuvette. The mixture was left to incubate for 15 min and, after that, AThCh and DTNB were added. The enzymatic reaction was followed through the measurements of absorbencies at 405 nm (Perkin Elmer Lambda 35 spectrophotometer equipped with a temperature programmer PTP 1þ1 Peltier System, using thermostated (T = 25.0 ± 0.1 °C) 1 cm path length cells) during 5 min. A blank solution containing all the components except the enzyme, that was substituted for equal volume of HEPES, was used. A control reaction was used using MeOH instead of the new compounds and was considered the reaction corresponding to 100% enzymatic activity. Each assay was performed in quintupled.

Series [2] concerns SH-SY5Y human neuroblastoma cells. In words: Dose-response cell viability screening, MTT reduction assay. The class given is cell-based. Particulars: for cytotoxicity on SH-SY5Y cell line: 10 μM to 100 μM, 24 h, at the active concentrations; for highest non-toxic concentration (selected concentration): SH-SY5Y cells exposed for 25 h. The method, then:
(§1) SH-SY5Y human neuroblastoma cells (ATCC-CRL-2266) were seeded in DMEM/F12 (Dulbecco’s Modified Eagle Medium/Ham’s F-12 Nutrient Mixture; Thermo Fisher Scientific) with 10% heat inactivated fetal bovine serum, 50 U/mL penicillin and 50 U/mL streptomycin under a humidified atmosphere with 95% relative humidity at 37 °C at a 0.16 × 10^6 cells/mL density. Stock solutions from tested compounds (1, 2, 4 and 5) were prepared in DMSO at a 25 mM concentration and stored at −20 °C until needed. In order to select the highest non-toxic concentration, a dose-response screening was performed, where SH-SY5Y cells were exposed to the compounds for 25 h. The selected concentrations for each compound were: 75 µM final concentration for 1 and 2; 10 µM final concentration for 4 and 20 µM final concentration for 5. […] For the neuroprotection assays, the selected compounds were added to the cell media 1 hour prior to the incubation with Aβ1-42 or L-ascorbic acid/ferrous sulphate. Aβ1-42 or L-ascorbic acid/ferrous sulphate treatment was maintained for another 24 h. Aβ1-42 was prepared as 276.9 µM stock in sterile water and administrated in the medium at a 2.5 µM final concentration. Ferrous sulphate was freshly prepared as 0.36 M stock in water and added to the medium at 2.5 mM final concentration. L-ascorbic acid was freshly prepared as 80 mM stock in water and added to the medium at 5 mM final concentration. Aβ1-42 was purchased from Bachem (Torrance, CA, USA) and ferrous sulphate and L-ascorbic acid from Sigma Chemical Co (St. Louis, MO, USA).
(§2) Cell viability was measured by using the MTT (3-(4,5-dimethylthiazol-2-yl)-2,5-diphenyl tetrazolium bromide) reduction assay. This test is based on the presence of succinate dehydrogenase enzyme in viable cells, that allows them to metabolize MTT into a formazan. After treatment, the medium was removed, and cells were washed with 1x PBS one time to remove dead cells. 200 µL of MTT solution (0.5 mg/mL) was added to each well and incubated for 2 h protected from light. Formazan precipitates were then dissolved in DMSO and absorbance measured at 570 nm. The ability to reduce MTT was expressed as a percentage of untreated control cells.
Figure 10 Dose-response screening of compounds 1, 2, 4 and 5 on SH-SY5Y neuronal cell line. Overnight cultures were treated with a range of concentrations from 10 μM to 100 μM for 24 h and cellular viability was determined by employing the MTT reduction assay.
Background: Tetrazolium dyes change colour on reduction, which living cells bring about.

For series [3] the test system is unchanged. In words: Neuroprotection against Aβ1-42-induced toxicity, MTT. The class given is cell-based. Particulars: Aβ1-42 2.5 μM 24 h; 1 h pre-incubation; compounds 1, 2 100 µM; 4 10 µM; 5 20 µM. The method, then:
as §1, §2
Overnight cultures were treated with Aβ1-42 peptide (2.5 μM) for 24 h in the absence or in the presence of the compounds. When compounds were present, a pre-incubation of 1 h preceded the Aβ1-42 treatment. Cellular viability was determined by employing the MTT reduction assay. […] (compounds: 1, 2–100 µM; 4–10 µM; 5–20 µM).

Series [4] concerns the target T1, Aβ1-42 (Homo sapiens, UniProt P05067).
T1 construct: Amyloid β peptide (Aβ1-42) was purchased from GeneCust as a lyophilised powder; purchased GeneCust
In words: biochemical. Particulars: Aβ1-42; inhibitor 40 µM; SEM < 10%; read-out: Inhib. Aβ Aggreg. Self-Induced. As for the experimental part: The anti-amyloidogenic activity of all the compounds was also evaluated in vitro, in the absence and in presence of Cu(II), by measuring the fluorescence emission of Thioflavin T (ThT).
The spectrofluorimetric method, based on the fluorescence emission of thioflavin T (ThT), was used to study the Aβ1-42 aggregation inhibition. Firstly, Aβ1-42 was dissolved in HFIP (1,1,1,3,3,3-Hexafluoro-2-propanol) and kept overnight at room temperature in order to obtain a dry film. […] The ligand solutions were prepared with MeOH (1mg/mL) and further with phosphate buffer. […] As a control, a solution of 30 μL of phosphate buffer and 30 μL of Aβ1-42 was used to observe the aggregation without any inhibition, while the ligand assay solutions were composed of 20 μL of phosphate buffer, 30 μL of Aβ1-42 and 10 μL of ligand. The Cu-induced aggregation studies were similarly conducted, adding 10 μL of CuCl2 to induce the fibril aggregation. Each experiment was composed of an assay and a blank sample, where the blank sample lacks Aβ1-42, to monitor the effect of the compounds on the fluorescence emission. The samples were left to incubate in a CERTOMAT WR water bath for 24 h at 37 °C with shaking. After 24 h, a Glycine-NaOH buffer (pH = 8.5) containing ThT were added to each sample in a microplate. The fluorescence signal was monitored at 446 nm (λexc) and 486 nm (λem) with a Varian Cary Eclipse fluorimeter. Amyloid β peptide (Aβ1-42) was purchased from GeneCust as a lyophilised powder and stored at −20 °C [12, 13, 14].

AChE of electroforus electricus (electric eel), sequence (O42275 24-633): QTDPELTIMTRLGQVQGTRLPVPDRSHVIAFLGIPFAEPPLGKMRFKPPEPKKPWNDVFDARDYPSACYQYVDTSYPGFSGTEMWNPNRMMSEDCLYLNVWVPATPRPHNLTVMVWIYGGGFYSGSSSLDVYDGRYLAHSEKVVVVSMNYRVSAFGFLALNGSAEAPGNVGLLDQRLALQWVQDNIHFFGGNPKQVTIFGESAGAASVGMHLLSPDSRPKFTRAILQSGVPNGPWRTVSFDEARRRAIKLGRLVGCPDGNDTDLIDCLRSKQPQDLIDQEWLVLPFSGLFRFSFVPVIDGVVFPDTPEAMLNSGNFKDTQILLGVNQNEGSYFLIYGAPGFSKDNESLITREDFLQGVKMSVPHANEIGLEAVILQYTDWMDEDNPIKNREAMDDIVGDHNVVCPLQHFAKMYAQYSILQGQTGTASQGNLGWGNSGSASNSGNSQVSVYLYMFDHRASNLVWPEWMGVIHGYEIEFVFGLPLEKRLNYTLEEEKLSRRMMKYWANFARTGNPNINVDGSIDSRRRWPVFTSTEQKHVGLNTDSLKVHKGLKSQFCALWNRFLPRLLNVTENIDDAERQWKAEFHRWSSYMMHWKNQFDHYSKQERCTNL
T1 sequence (P05067 672-713 limits assumed): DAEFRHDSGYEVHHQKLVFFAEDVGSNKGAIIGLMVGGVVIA

Usually IC50 stands for the concentration at which inhibition is half-maximal. As to `CCOC(=O)C1=C(O)C(C(C)C)NC1=O` (stereo not shown) [Compound 1, Ethyl 4-hydroxy-5-isopropyl-2-oxo-2,5-dihydro-1H-pyrrole-3-carboxylate], in series [1], the IC50 worked out at 42 ± 3 µM. In series [2], the “cytotoxicity on SH-SY5Y cell line” value is “do not show (except for compound 4) cytotoxicity” and the “highest non-toxic concentration (selected concentration)” value is recorded as 75 µM. Moreover, in series [3], the “protection against Aβ1-42-induced toxicity” value was “do not confer protection”. Further, the inhibition at 40 µM in series [4] stood at 32.9%.

`CCOC(=O)C1=C(O)C(Cc2ccccc2)NC1=O` (stereo not shown) [Compound 2, Ethyl 5-benzyl-4-hydroxy-2-oxo-2,5-dihydro-1H-pyrrole-3-carboxylate]: the concentration for half-maximal inhibition (IC50) in series [1] was 57 ± 4 µM. Further, in series [2], the “cytotoxicity on SH-SY5Y cell line” value was “do not show (except for compound 4) cytotoxicity” and the “highest non-toxic concentration (selected concentration)” value came out at 75 µM. Further, the “protection against Aβ1-42-induced toxicity” value in series [3] is reported as “do not confer protection”. Moreover, the inhibition at 40 µM in series [4] was 12.4%.
